The values that follow come from US20200206172A1, “COMPOSITIONS AND METHODS FOR TREATING NEURODEGENERATIVE DISORDERS” (GNT Pharma Co., Ltd., priority 2018, published 2020).

“And” between values parts separate entries of the source, which are not always exact repeats. Identical values can stand only once.

For data set [1], the system named is dogs with CDS. Put plainly: CCDR scale questionnaire in companion dogs with CDS, randomized blind placebo-controlled clinical trial. The data set is classed as in vivo, dog. Set-up: key to CCDR score, 4 weeks / CCDR score, 8 weeks / CCDR score, 12 weeks / CCDR score, 16 weeks (discontinuation) / CCDR score, 20 weeks (discontinuation) / CCDR score, 12 weeks (discontinuation): CCDR scale points (13 items); ≥50 indicates CDS. From the text: (§1) The companion animals tested in the study were 22 elderly dogs (12-19 years of age) diagnosed with CDS. Each dog enrolled for the present study met the following criteria: body weight <12 kg (regardless of gender), dogs which had lived with the owner for at least 90 days, dogs which were able to take oral medicine, dogs with CDS diagnosed by investigator (canine cognitive dysfunction rating (CCDR) scale ≥50 points) and dogs with informed consent of their owners. Dogs with a pregnancy or lactating, with hypersensitivity against salicylic acid derivatives, or with the underlying disease (i.e. renal dysfunction, visual loss, heart failure, or renal failure) were excluded. In addition, dogs which had participated any other clinical trials within 90 days or dogs which had not only CDS but also other neurodegenerative diseases were excluded.
(§2) This study was a randomized, blind, placebo-controlled clinical trial to investigate the efficacy and safety of Compound 2 in dogs with CDS. To investigate the efficacy of Compound 2, two questionnaires were evaluated: CCDR scale and canine dementia scale (CADES). To measure the safety of Compound 2, not only the occurrence of adverse events was investigated but also the vital signs, physical examination, and blood tests were performed in the dogs. Compound 2 was prescribed for oral administration of 10 mg/kg once-daily dosing for 8 weeks. Subjects 3 and 4 received Compound 2 additionally for 4 weeks with approval of the principal investigator. Instead of Compound 2, subjects 18-22 received placebo for 8 weeks. In this study, we allowed the dogs to be administered Compound 2 in various ways: mix with dietary supplement (subjects 1 and 3), mix with food (subjects 2 and 6), dissolve in water (subject 4), or capsule with water (subject 5), or chewable tablet with water (subjects 7-22).
(§3) Rating scales are essential tools for CDS diagnosis, staging, assessment, and careful monitoring of the disease symptoms as well as for evaluation of the efficacy of therapeutic strategies. Several rating scales have been developed during the last decade e.g. CCDR scale. To assess the severity of CDS in this study, two questionnaires (CCDR scale and CADES) were performed before and after oral administration of Compound 2 by a veterinarian. Questionnaires include a broad range of items measuring appetite, drinking behavior, barking, elimination behavior, day/night sleeping pattern, aimless behavior, adaptive capabilities, social behavior, perceptual ability, disorientation, and memory.
CCDR scale consists of 13 items based on CDS symptoms (Table 2). The 13 kinds of behaviors included various problems related to orientation (staring blankly, getting lost in the home), memory (lack of recognition of owners, house-soiling), apathy (reduced time spent active, avoiding contact with owners), impaired olfaction (difficulty finding food), and locomotion. These problems compromise both the dog's quality of life and the dog-owner bond. Scores ≥50 on the CCDR are indicative of CDS in the aged dogs (12-19 years of age). In this study, we compared the CCDR scores before and after administration of Compound 2 in dogs with CDS.

The test system of data set [2] is APP/PS1 mice. Put plainly: Animal model of AD (APP/PS1 mice), preliminary data. It is filed as in vivo. The conditions noted are these: oral, 2.5 mg/kg.
Data set [3] deals with dogs with CDS. Put plainly: Canine dementia scale (CADES) questionnaire in companion dogs with CDS. The data set is classed as in vivo, dog.
Description: as §1, §2, §3
To ensure and confirm the CCDR scale, we used an additional questionnaire, CADES which contains 17 items distributed into four domains, related to changes in dogs' behaviors: spatial orientation, social interaction, sleep-wake cycle, and house soiling (Table 6). It can be classified according to various stages of cognitive impairment: mild, moderate, and severe cognitive impairment. It is known well that CADES is also suitable for long-term assessment of the progression of cognitive impairment in canine, and potentially as efficacy readout for treatments.

The nature of data set [4]: Stability test. It is filed as physicochemical. The procedure: In stability test, Compound 2 was stable at 25° C. for at least 60 months. Additionally, the capsule and chewable formulations of Compound 2 were stable at 25° C. for at least 24 and 12 months, respectively.
The target in data set [5] is T1, microsomal prostaglandin E(2) synthase-1 (mPGES-1) (Homo sapiens, UniProt O14684).
T1 sequence (O14684 1-152): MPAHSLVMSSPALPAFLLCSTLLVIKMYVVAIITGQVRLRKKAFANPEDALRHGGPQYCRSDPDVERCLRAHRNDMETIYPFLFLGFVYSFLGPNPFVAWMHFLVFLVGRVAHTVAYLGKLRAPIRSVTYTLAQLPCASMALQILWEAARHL
The conditions noted are these: previous study [20]; cited from earlier work.

The test system of data set [6] is G93A mice. Put plainly: Animal model of amyotrophic lateral sclerosis (G93A mice), preliminary data. It is filed as in vivo. Conditions: oral, 2.5 mg/kg.
Data set [7] is described as follows: Pharmacokinetics after oral administration in mice. Conditions: mouse, plasma, 2.5 mg/kg. The data set is classed as in vivo.
Data set [8] can be described thus: in vivo. More on the design: species or system beagle dogs. Conditions: both sexes, beagle, dog, po. The procedure:
The systemic toxic potential of Compound 2 in beagle dogs was investigated in Huntington Life Science, a large non-clinical contract research organization in Cambridgeshire, England. Three groups each comprising three males and three females, received Compound 2 at doses of 20, 65, or 200 mg/kg/day for 13 weeks. […] Consequently, 200 mg/kg/day was considered the no-observed-adverse-effect level (NOAEL) in dogs.

Data set [9] has as its system dogs with CDS. Put plainly: Safety assessment in dogs with CDS. The data set is classed as in vivo. The conditions noted are these: 10 mg/kg oral once daily. The procedure: as §2
During this study, the safety of Compound 2 in dogs with CDS was evaluated at every visit.

The subject of data set [10] is mouse model of amyotrophic lateral sclerosis. Conditions: previous study [20]; cited from earlier work.
Data set [11] in a line: Pharmacokinetic study in beagle dogs. It is filed as in vivo. Conditions: dog, plasma, oral, 20 mg/kg/day. Here is the method:
Based upon the safety and pharmacokinetic profile of Compound 2, a dose of 10 mg/kg/day was chosen to investigate safety and efficacy of Compound 2 in canine CDS.

Data set [12] has as its system moderate-to-severe AD. Conditions: cited from earlier work.
In data set [13] the test system is CDS dogs. The conditions noted are these: literature [17-19]; effect in most dogs disappeared at 8 weeks after treatment; cited from earlier work.
The mark [14] stands for this setting: change vs 0 week, 10 mg/kg oral once daily, per individual dog, 10 mg/kg.
[15] abbreviates: 10 mg/kg oral once daily, per individual dog.
The mark [16] stands for this setting: change vs 0 week, per individual dog.

As a reminder, the AUC is the area under the concentration-time curve, a measure of exposure. Usually NOAEL stands for the highest dose or exposure tested at which no adverse effect was seen. Take `O=C(O)c1cc(NCCc2ccc(C(F)(F)F)cc2)ccc1O` [Compound 2, 2-hydroxy-5-[2-(4-trifluoromethyl-phenyl)-ethylamino]-benzoic acid]: the “CCDR score, 4 weeks” value in data set [1] (10 mg/kg oral once daily, 4 weeks of administration, individual dog (subject No.)) was 38 and 40 and 55 and 56 and 53 and 54 and 60 and 52 and 50 and 43 and 63 and 49 and 30. For the same compound, the “CCDR score, 8 weeks” value in [1] (10 mg/kg oral once daily, 8 weeks of administration, per individual dog) was 34 and 46 and 41 and 51 and 54 and 27 and 50 and 53 and 59 and 43 and 30 and 42. Further, the “beneficial effects maintained after the last administration” value in [1] (aged companion dogs with severe CDS, oral) is on record as “at least 4 weeks”. Besides, in data set [1] (setting [14]), the “CCDR score change, 4 weeks” value was −22 and −11 (3×) and −9 (2×) and −12 (2×) and −18 and −5 and −1 and −7 and −6 and −16 and −10 and −44 and −13; the “CCDR score change, 8 weeks” value was −26 and −5 and −23 and −16 and −11 and −40 and −24 and −6 and −2 and −10 and −9 and −7 and −19 and −44 and −20. The “CCDR score, 12 weeks” value in [1] (subjects 3 and 4, 12-week administration) was 32 and 43. In data set [1] (subjects 3 and 4, 4 weeks after discontinuation of 12-week administration), the “CCDR score, 16 weeks (discontinuation)” value was 38 and 44. Further, the “CCDR score, 20 weeks (discontinuation)” value in [1] (subjects 3 and 4, 8 weeks after discontinuation of 12-week administration) was 36 and 43. In addition, the “CCDR score, 12 weeks (discontinuation)” value in data set [1] (subjects 7, 8, 10, 11, 4 weeks after discontinuation of 8-week administration) is 48 and 50 and 54. Moreover, the “cognitive function on the CCDR scale” value in data set [1] (within 4 weeks of oral administration) is reported as “near normal cognitive function”. For the same compound, in data set [2], the “improvement in cognitive and motor functions” value is “maximally beneficial effects”. Further, in data set [3] (setting [15]), the “CADES score of house soiling (items 13-17), 4 weeks” value was 5 (2×) and 9 and 16 and 14 and 22 (2×) and 11 and 3 and 19 (2×) and 17 and 10 and 25 and 18 and 4 and 0; the “CADES score of house soiling (items 13-17), 8 weeks” value is 4 (2×) and 0 (3×) and 8 and 12 and 18 and 14 and 21 and 20 and 5 and 19 and 17 and 25; the “CADES score of sleep-wake cycles (items 11-12), 4 weeks” value is 18 (4×) and 6 and 16 (2×) and 20 (3×) and 0 and 10 (2×) and 8 (2×) and 14 and 4; the “CADES score of sleep-wake cycles (items 11-12), 8 weeks” value was 10 and 0 (4×) and 14 and 12 (3×) and 20 (2×) and 16 (2×) and 8 and 6. In [3] (setting [15]), the “CADES score of social interaction (items 6-10), 4 weeks” value is 5 (2×) and 14 (3×) and 17 (2×) and 13 (3×) and 0 and 25 and 15 and 10 and 18 and 20 and 19; the “CADES score of social interaction (items 6-10), 8 weeks” value was 15 (2×) and 5 and 10 (2×) and 14 and 11 and 19 and 4 and 24 and 16 and 18 and 9 and 13 and 3; the “CADES score of spatial orientation (items 1-5), 4 weeks” value was 5 (3×) and 20 (3×) and 18 (2×) and 16 and 17 and 24 (3×) and 25 (2×) and 13 and 21; the “CADES score of spatial orientation (items 1-5), 8 weeks” value was 9 and 15 (3×) and 13 (2×) and 17 and 25 and 0 and 24 and 20 (2×) and 22 and 23 and 4. Also, in data set [3] (setting [15]), the “Total CADES score, 4 weeks” value was 33 and 49 and 67 and 65 and 68 and 69 and 8 and 89 and 64 and 57 and 66 and 55 and 90 and 51 and 14; the “Total CADES score, 8 weeks” value is 38 and 20 and 45 and 53 and 58 and 78 and 4 and 85 and 55 and 63 and 57 and 64 and 40 and 67 and 7. Besides, the “companion dogs showing improvement in spatial disorientation” value in data set [3] (4 weeks after administration, 10 of 17 dogs) is reported as 59%. Besides, the “companion dogs showing further improvement in social interaction at 8 weeks compared with 4 weeks” value in data set [3] (8 of 15 dogs) was found to be 53%. In addition, the “companion dogs significantly improved in sleep-wake cycle (item 11)” value in [3] (8 weeks after administration, 10 of 15 dogs) is 67%. The “cognitive function by total CADES score” value in data set [3] (8 weeks after oral administration) is “significant improvement in cognitive function was observed from severe to moderate, weak, or normal level”. Further, the “companion dogs with beneficial effects on spatial orientation” value in data set [3] (8 weeks after oral administration, 9 of 15 dogs) amounted to 60%. Also, in data set [3] (setting [16]), the “CADES score of house soiling (items 13-17), change, 4 weeks” value is 1 and −6 and −2 (2×) and −5 (2×) and −1 (2×) and −4 and −15 and 0 (5×) and −3 and −10; the “CADES score of house soiling (items 13-17), change, 8 weeks” value is 0 (3×) and −15 and −10 (2×) and −7 and −5 and −1 (2×) and −18 and 1 and −2 and −3 and −6; the “CADES score of sleep-wake cycles (items 11-12), change, 4 weeks” value is −2 (5×) and −4 and 4 (2×) and 0 (6×) and −18 and −6 and −12; the “CADES score of sleep-wake cycles (items 11-12), change, 8 weeks” value is −10 (3×) and −4 (2×) and −2 (2×) and −6 and 0 (3×) and −18 and 2 and −14 and −16. Also, in data set [3] (setting [16]), the “CADES score of social interaction (items 6-10), change, 4 weeks” value was −10 and 0 (6×) and −1 (3×) and −2 (2×) and −4 and −14 and −5 and −7 and −11; the “CADES score of social interaction (items 6-10), change, 8 weeks” value is 0 (3×) and −9 and −8 and −5 and −2 and 1 and −10 and −1 (2×) and −3 and −6 and −7 and −13; the “CADES score of spatial orientation (items 1-5), change, 4 weeks” value was −9 and −3 (2×) and −1 (3×) and −2 (2×) and 2 and −11 and 0 (4×) and 3 and 5 and −19; the “CADES score of spatial orientation (items 1-5), change, 8 weeks” value is −5 and −8 and −6 and −3 (2×) and −1 and 3 (2×) and −16 and 0 (4×) and −2 and −20. In [3] (setting [16]), the “Total CADES score change, 4 weeks” value is −20 and −13 and −6 (2×) and −5 (2×) and −4 and −58 and 0 (2×) and −2 and −8 and 5 (2×) and −11 and −15 and −52; the “Total CADES score change, 8 weeks” value is −15 and −42 and −28 and −17 and −14 and 3 and −62 and −4 and −9 and −6 and −2 and −10 (2×) and −18 and −59. In addition, in data set [4], the “stable at 25° C. for” value is listed as “at least 60 months”. Besides, in [5], the “mPGES-1 inhibition, effective concentration” value was “effective at nanomolar concentrations”. The “improvement in cognitive and motor functions” value in [6] was “maximally beneficial effects”. Besides, the AUC in data set [7] (read-out: AUC (area under the plasma level-time curve)) stood at 9610 ± 1380 ng·h/mL. Besides, the Cmax in [7] (read-out: Cmax (mean maximum plasma concentration)) is 5190 ± 960 ng/mL. This compound showed an NOAEL at 13 weeks in data set [8] of 200 mg/kg/day. For the same compound, in [9], the blood toxicity test result is given as “no significant changes” and the treatment-related adverse events result was “did not occur”. Also, the “motor function activity and life span” value in data set [10] was “increases of motor function activity and life span”. Moreover, in [11], the AUC came out at 75100 ng·h/mL and the Cmax came to 10600 ng/mL.
As for `CC12CC3CC(C)(C1)CC(N)(C3)C2` [memantine], the “mental function and ability to perform daily activities” value in [12] was “a small improvement”.
For `C#CCN(C)[C@H](C)Cc1ccccc1` [selegiline], in data set [13], the “cognitive function in CDS dogs” value is “improved within the first 2 weeks”.
